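Compound exposure: 48 hours, 5 concentrations, 96-well plates. GI50 is the concentration that inhibits growth by half. TGI: concentration producing complete growth inhibition.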
Legend:
Experiment in all cases: NCI tumour cell line growth inhibition, 48 h; in the data active means GI50 below about 0.43 µM; inactive means the rest
SN12C renal = system: SN12C renal
HL-60(TB) leukemia = system: HL-60(TB) leukemia
COLO 205 colon = system: COLO 205 colon
HCT-116 colon = system: HCT-116 colon
SK-MEL-2 melanoma = system: SK-MEL-2 melanoma
A549 NSCLC = system: A549 NSCLC
ACHN renal = system: ACHN renal
NCI-H522 lung = system: NCI-H522 lung
LOX IMVI melanoma = system: LOX IMVI melanoma
UO-31 renal = system: UO-31 renal
CCRF-CEM leukemia = system: CCRF-CEM leukemia
KM12 colon = system: KM12 colon
SF-268 CNS = system: SF-268 CNS
PC-3 prostate = system: PC-3 prostate
CAKI-1 renal = system: CAKI-1 renal
DU-145 prostate = system: DU-145 prostate
UACC-257 melanoma = system: UACC-257 melanoma
OVCAR-4 ovarian = system: OVCAR-4 ovarian
SK-OV-3 ovarian = system: SK-OV-3 ovarian
SNB-75 CNS = system: SNB-75 CNS
SF-295 CNS = system: SF-295 CNS
NCI-H23 lung = system: NCI-H23 lung
OVCAR-5 ovarian = system: OVCAR-5 ovarian
U251 CNS = system: U251 CNS
A498 renal = system: A498 renal
SK-MEL-5 melanoma = system: SK-MEL-5 melanoma
IGROV1 ovarian = system: IGROV1 ovarian
OVCAR-8 ovarian = system: OVCAR-8 ovarian
TK-10 renal = system: TK-10 renal
MDA-MB-231 breast = system: MDA-MB-231 breast
HT29 colon = system: HT29 colon
BT-549 breast = system: BT-549 breast
HCT-15 colon = system: HCT-15 colon
EKVX NSCLC = system: EKVX NSCLC
SW-620 colon = system: SW-620 colon
HCC-2998 colon = system: HCC-2998 colon
OVCAR-3 ovarian = system: OVCAR-3 ovarian
NCI-H460 lung = system: NCI-H460 lung
T-47D breast = system: T-47D breast
MALME-3M melanoma = system: MALME-3M melanoma
HOP-62 NSCLC = system: HOP-62 NSCLC
NCI/ADR-RES ovarian = system: NCI/ADR-RES ovarian
M14 melanoma = system: M14 melanoma
MCF7 breast = system: MCF7 breast
MDA-MB-435 = system: MDA-MB-435
MOLT-4 leukemia = system: MOLT-4 leukemia
SR leukemia = system: SR leukemia
SF-539 CNS = system: SF-539 CNS
UACC-62 melanoma = system: UACC-62 melanoma
HS 578T breast = system: HS 578T breast
SK-MEL-28 melanoma = system: SK-MEL-28 melanoma
NCI-H226 lung = system: NCI-H226 lung
SNB-19 CNS = system: SNB-19 CNS
RPMI-8226 leukemia = system: RPMI-8226 leukemia
HOP-92 NSCLC = system: HOP-92 NSCLC
K-562 leukemia = system: K-562 leukemia
RXF 393 renal = system: RXF 393 renal
786-0 renal = system: 786-0 renal

CC(=Nc1ccc(S(N)(=O)=O)cc1)c1c(O)[nH]c2ccccc12
inactive: GI50 (SN12C renal) > 25 µM | GI50 (HL-60(TB) leukemia) > 25 µM | GI50 (COLO 205 colon) > 16 µM | GI50 (HCT-116 colon) > 22.8 µM | GI50 (SK-MEL-2 melanoma) > 25 µM | GI50 (A549 NSCLC) > 25 µM | GI50 (ACHN renal) > 25 µM | GI50 (NCI-H522 lung) > 25 µM | GI50 (LOX IMVI melanoma) > 25 µM | GI50 (UO-31 renal) 7.37 µM | GI50 (CCRF-CEM leukemia) > 25 µM | GI50 (KM12 colon) 0.872 µM | GI50 (SF-268 CNS) > 25 µM | GI50 (PC-3 prostate) > 25 µM | GI50 (CAKI-1 renal) 17.1 µM | GI50 (DU-145 prostate) > 25 µM | GI50 (UACC-257 melanoma) > 25 µM | GI50 (OVCAR-4 ovarian) > 25 µM | GI50 (SK-OV-3 ovarian) > 12.2 µM | GI50 (SNB-75 CNS) > 25 µM | GI50 (SF-295 CNS) > 25 µM | GI50 (NCI-H23 lung) > 25 µM | GI50 (OVCAR-5 ovarian) > 25 µM | GI50 (U251 CNS) > 25 µM | GI50 (A498 renal) > 25 µM | GI50 (SK-MEL-5 melanoma) > 25 µM | GI50 (IGROV1 ovarian) > 25 µM | GI50 (OVCAR-8 ovarian) > 25 µM | GI50 (TK-10 renal) > 25 µM | GI50 (MDA-MB-231 breast) > 25 µM | GI50 (HT29 colon) > 25 µM | GI50 (BT-549 breast) > 25 µM | GI50 (HCT-15 colon) > 25 µM | GI50 (EKVX NSCLC) > 25 µM | GI50 (SW-620 colon) > 18.5 µM | GI50 (HCC-2998 colon) > 25 µM | GI50 (OVCAR-3 ovarian) > 25 µM | GI50 (NCI-H460 lung) > 23.9 µM | GI50 (T-47D breast) > 8.37 µM | GI50 (MALME-3M melanoma) > 25 µM | GI50 (HOP-62 NSCLC) > 14.5 µM | GI50 (NCI/ADR-RES ovarian) > 25 µM | GI50 (M14 melanoma) > 25 µM | GI50 (MCF7 breast) > 17.5 µM | GI50 (MDA-MB-435) > 25 µM | GI50 (MOLT-4 leukemia) > 25 µM | GI50 (SR leukemia) > 25 µM | GI50 (SF-539 CNS) > 25 µM | GI50 (UACC-62 melanoma) > 25 µM | GI50 (HS 578T breast) > 25 µM | GI50 (SK-MEL-28 melanoma) > 25 µM | GI50 (NCI-H226 lung) > 23.6 µM | GI50 (SNB-19 CNS) > 25 µM | GI50 (RPMI-8226 leukemia) > 25 µM | GI50 (HOP-92 NSCLC) > 25 µM | GI50 (K-562 leukemia) > 25 µM | GI50 (RXF 393 renal) > 25 µM | GI50 (786-0 renal) > 25 µM
> 25 µM: TGI (SN12C renal) | TGI (HL-60(TB) leukemia) | TGI (COLO 205 colon) | TGI (HCT-116 colon) | TGI (SK-MEL-2 melanoma) | TGI (A549 NSCLC) | TGI (ACHN renal) | TGI (NCI-H522 lung) | TGI (LOX IMVI melanoma) | TGI (UO-31 renal) | TGI (CCRF-CEM leukemia) | TGI (KM12 colon) | TGI (SF-268 CNS) | TGI (PC-3 prostate) | TGI (CAKI-1 renal) | TGI (DU-145 prostate) | TGI (UACC-257 melanoma) | TGI (OVCAR-4 ovarian) | TGI (SK-OV-3 ovarian) | TGI (SNB-75 CNS) | TGI (SF-295 CNS) | TGI (NCI-H23 lung) | TGI (OVCAR-5 ovarian) | TGI (U251 CNS) | TGI (A498 renal) | TGI (SK-MEL-5 melanoma) | TGI (IGROV1 ovarian) | TGI (OVCAR-8 ovarian) | TGI (TK-10 renal) | TGI (MDA-MB-231 breast) | TGI (HT29 colon) | TGI (BT-549 breast) | TGI (HCT-15 colon) | TGI (EKVX NSCLC) | TGI (SW-620 colon) | TGI (HCC-2998 colon) | TGI (OVCAR-3 ovarian) | TGI (NCI-H460 lung) | TGI (T-47D breast) | TGI (MALME-3M melanoma) | TGI (HOP-62 NSCLC) | TGI (NCI/ADR-RES ovarian) | TGI (M14 melanoma) | TGI (MCF7 breast) | TGI (MDA-MB-435) | TGI (MOLT-4 leukemia) | TGI (SR leukemia) | TGI (SF-539 CNS) | TGI (UACC-62 melanoma) | TGI (HS 578T breast) | TGI (SK-MEL-28 melanoma) | TGI (NCI-H226 lung) | TGI (SNB-19 CNS) | TGI (RPMI-8226 leukemia) | TGI (HOP-92 NSCLC) | TGI (K-562 leukemia) | TGI (RXF 393 renal) | TGI (786-0 renal)

— PubChem BioAssay (NCI)
